Entries after “also recorded” stand apart in the source; their conditions may differ.
Key:
[1] = Hydrodynamic diameter and polydispersity of LNPs by dynamic light scattering (DLS), Zetasizer; format: physicochemical; details: insertion of anti-CD3 hSP34-PEG2k-DSPE conjugate
Method: (§1) Samples of the LNPs produced in Example 2 were characterized to determine the average hydrodynamic diameter, zeta potential, and mRNA content (total and dye-accessible). The hydrodynamic diameter was determined by dynamic light scattering (DLS) using a Zetasizer model ZEN3600 (Malvern Pananalytical, UK). The zeta potential was measured in 5 mM pH 5.5 MES buffer and 5 mM pH 7.4 HEPES buffer by laser Doppler electrophoresis using the Zetasizer.

[2] = Zeta potential of LNPs by laser Doppler electrophoresis in 5 mM pH 5.5 MES and 5 mM pH 7.4 HEPES buffer; format: physicochemical; details: pH 5.5 MES and pH 7.4 HEPES buffer
Method: as §1

[3] = Quant-iT RiboGreen RNA assay: dye accessible and total (Triton) mRNA content, encapsulation; format: physicochemical; details: Table 9: Lipid 2 and Lipid 6 LNP
Method: RNA content of the nanoparticles is measured using Thermo Fisher Quant-iT RiboGreen RNA Assay Kit. Dye accessible RNA, which includes both non-incorporated RNA and RNA that is near the surface of the nanoparticle, is measured by diluting the nanoparticles to approximately 1 μg/mL mRNA using HEPES buffered saline, and then adding Quant-iT reagent to the mixture. Total RNA content is measured by diluting the particles to 1 μg/mL mRNA using HEPES buffered saline, disrupting the nanoparticles by heating them to 60° C. for 30 minutes in HEPES buffered saline containing 0.5% Triton, and then adding Quant-It reagent. RNA is quantified by measuring fluorescence at 485/535 nm, and concentration is determined relative to a contemporaneously run RNA standard curve.

[4] = Apparent pKa of LNPs by TNS fluorescent probe; format: physicochemical; details: LNP made with the named ionizable lipid; pH at 50% of maximum TNS fluorescence
Text: This example describes the fluorescent dye based method used for measurement of the apparent pKa of the lipid nanoparticles. Apparent pKa determines the nanoparticle surface charge under physiological pH conditions, typically a pKa value in the endosomal pH range (6-7.4) results in LNPs that are neutral or slightly charged at plasma or the extracellular space (pH 7.4) and become strongly positive under acidic endosomal environments. This positive surface charge drives fusion of the LNP surface with negatively charged endosomal membranes resulting in destabilization and rupture of the endosomal compartment and LNP escape into the cytosolic compartment, a critical step in cytosolic delivery of mRNA and protein expression via engagement of the cells ribosomal machinery.
The apparent pKa of LNPs made using ionizable Lipids 2, 5 (synthesized as described in example 1), 6 and 7 (synthesized using method analogous to Lipid 2, 5, respectively, except using diethyl amine instead of dimethyl amine to incorporate the tertiary amine head group) were determined by 6-(p-Toluidino)-2-naphthalenesulfonic acid (TNS) fluorescence measurement in aqueous buffers covering a range of pH values (pH 4-pH 10). TNS is non-fluorescent when free in solution, but which fluoresces strongly when associated with a positively charged lipid nanoparticle. At a pH values below the pKa of the nanoparticle, positive LNP surface charge results in dye recruitment at the particle interface resulting in TNS fluorescence. At pH values above the LNP pKa no fluorescence is observed. The apparent pKa of the LNP is reported as the pH at which the fluorescence is at 50% of its maximum, as determined using a four-point logistic curve fit.

[5] = system: primary human T-cells (CD3+ T cells); assay: In vitro LNP transfection of primary human T-cells (GFP, Cy5 or DiI, viability by FACS); format: cell-based
Text: This example describes the protocol used for in vitro LNP transfections in primary human T-cells. This method is used to assess LNP in vitro efficacy in relevant target cells (CD3+ T cells) by first transfecting the cells using LNPs loaded with mRNA encoding for a reporter gene, such as GFP mRNA, and then assessing transfection by measuring reporter gene expression by fluorescence-[…] cell sorting (FACS). Additionally, particle association with cells may be observed by in the same assay by labeling individual nanoparticle components, such as the mRNA, with a fluorescent dye, such as Cy5, and then observing cell/dye association by FACS.
CD3+ T cells were isolated from frozen peripheral blood mononuclear cells using an EasySep Human T Cell Isolation Kit on a RoboSep automated cell isolation system from […]. T cells were plated into a flat bottom 96-well plate in RPMI cell culture media supplemented with glutamax, 10% fetal bovine serum, and 40 ng/mL IL2. 100 μL of cell suspension was seeded per well at a density of 1M T cells/mL (100K T cells/well). Cells were allowed to rest for two hours in a 37° C. incubator, and then were transfected by gently adding 10 μL of a 22 μg/mL (by mRNA) nanoparticle suspension, resulting in a final mRNA concentration of 2 μg/mL. Cells were gently mixed with a pipette and then incubated for 24 hours in a 37° C. incubator. After incubation the cells were analyzed using an ThermoFisher Attune NXT flow cytometer. Cy5 was detected using a 638 nm laser with 670/14 nm filter. eGFP was detected using a 488 nm laser and a 530/30 nm filter. Data were analyzed using FlowJo software from BD biosciences. FACS data were first gated to exclude doublets and dead cells and then gated for GFP and Cy5. Gates for GFP+ and Cy5+were set such that a control sample (PBS treated T cells) was <0.1% positive.
CD3+ T cells were isolated from frozen peripheral blood mononuclear cells using an EasySep Human T Cell Isolation Kit on a RoboSep automated cell isolation system from […]. T cells were plated into a round bottom 96-well plate in RPMI cell culture media supplemented with glutamax, 10% fetal bovine serum, pen-strep, and 40 ng/mL IL-2. 100 μL of cell suspension was seeded per well at a density of 1M T cells/mL (100K T cells/well). Cells were allowed to rest for two hours in a 37° C. incubator, and then were transfected by gently adding 10 μL of a 22 μg/mL (by mRNA) nanoparticle suspension, resulting in a final mRNA concentration of 2 μg/mL (unless otherwise noted). Cells were gently mixed with a pipette and then incubated for 24 hours in a 37° C. incubator. After incubation the cells were diluted with FACS buffer (BD 554657) and analyzed using a BD Fortessa flow cytometer. Data were analyzed using FlowJo software from BD biosciences.

[6] = Freeze thaw stability of LNP formulations (storage at 4° C., −80° C. or flash frozen in liquid nitrogen; DLS); format: physicochemical; details: one freeze thaw cycle, relative to 4 C storage
Method: Following the preparation of the targeted LNP formulation, the formulation was split into two portions. One portion was exchanged into 40 mM pH 7.4 HEPES buffer, and the other portion was exchanged into 30 mM pH 7.4 Tris buffer. The buffer exchange was performed using a discontinuous diafiltration method where the LNP formulation sample was transferred into a centrifugal ultrafiltration device with […] MWCO regenerated cellulose membrane (Amicon Ultra-4, MilliporeSigma, Massachusetts, US), then diluted 10-fold with the exchange buffer, and concentrated back to the original volume by centrifuging at 500 rcf. This dilution and concentration step was repeated one additional time. The exchanged LNP samples were then divided into separate aliquots that were mixed with concentrated sodium chloride and sucrose solutions to provide the final freeze-thaw sample formulations. Samples of each freeze-thaw formulation were then stored at 4° C., frozen at −80° C., or flash frozen in liquid nitrogen. The samples were later thawed at room temperature and tested for size by DLS and in vitro T cell transfection.

human CD8 T cells = assay: Transfection of human CD8 T cells with Fab-targeted Cy5/GFP mRNA LNPs; format: cell-based; details: Lipid 8 LNP, Cy5/GFP mRNA approximately 2.5 μg/mL, approximately 24 hr, Fab conjugate post-inserted
Method: LNPs were prepared using the mixing process described in Example 6, the buffer exchange process described in Example 21. hSP34 and TRX2 Fab-lipid conjugates generated from methods described in Example 4 and a non-T cell specific anti-HER2 lipid-conjugate (Nellis D F, Ekstrom D L, Kirpotin D B, Zhu J, Andersson R, Broadt T L, Ouellette T F, Perkins S C, Roach J M, Drummond D C, Hong K, Marks J D, Park J W and Giardina S L (2005) Preclinical manufacture of an anti-HER2 scFv-PEG-DSPE, liposome-inserting conjugate. 1. Gram-scale production and purification. Biotechnol Prog 21:205-220) were post-inserted at various densities (SP34 0.6-17 g/mol; TRX2 3-9 g/mol; anti-HER2 17 g/mol) into LNPs containing Lipid 8, Cy5 labeled GFP mRNA and GFP mRNA (1:9 Cy5:GFP mass ratio) by adding conjugate and LNPs together and heating the solution without mixing in a thermal cycler at 60 C for 60 min and cooled to 4° C. for 3-5 min. […] After transfection, LNP binding efficiency (Cy5) and transfection efficiency (GFP) was evaluated by flow cytometry. Supernatants were measured for human IFNγ concentration using a commercially available ELISA kit under manufacturers recommended conditions (R&D Systems Duoset). […]

[7] = theoretical total mRNA 45 μg/mL

Molecule | change in particle size and PDI upon conjugate insertion [1] | LNP surface charge (zeta potential), in words [2] | % Dye Accessible mRNA [3] | Measured total (Triton method) mRNA [3, 7] | Ribogreen Dye Accessible mRNA [3, 7] | apparent pKa of LNP (TNS) [4] | T-cell transfection and cell association after freeze-thaw, in words ([5]; after one freeze thaw cycle, relative to 4 C storage) | GFP protein expression (% GFP+ cells, GFP MFI), in words ([5]; hSP34 targeted LNP with GFP mRNA, 24 hours) | LNP association with cells (% Cy5+/Cy5 MFI or % DiI+/DiI MFI), in words ([5]; hSP34 targeted LNP, 24 hours) | T-cell viability / tolerability, in words ([5]; hSP34 targeted LNP, 24 hours, dose as in the value) | LNP size and polydispersity after freeze-thaw, in words [6] | transfection (% GFP+, GFP MFI) and binding (% Cy5+, Cy5 MFI), in words (human CD8 T cells)
CCCCC/C=C\C/C=C\CCCCCCCC(=O)OC[C@H](COC(=O)CCCN(CC)CC)OC(=O)CCCCCCC/C=C\C/C=C\CCCCC [Lipid 6] | significantly greater size distribution changes compared to Lipid 12 and Lipid 13 LNPs; also recorded: moderate changes in particle size and PDI | greater positive surface charge relative to Lipid 12 and 13 | 15% | 40 µg/mL | 6 µg/mL | ~7 | retained function after being subjected to freeze-thaw stress | Dose dependent expression of GFP protein | equally associated with cells | well tolerated by T-cells at all LNP doses tested; also recorded: moderately higher viability at higher dose of 2 μg/mL | minor changes in particle size distributions after frozen storage at −80 C | 
Hu291: anti-CD3 Fab, SEQ ID NO: 4 and 5 |  |  |  |  |  |  |  |  |  |  |  | high levels of % Cy5+ T cells
